# Assay results from patent publication US9157904B2, “Wnt antagonists and methods of treatment and screening” (OncoMed Pharmaceuticals, Inc., priority 2010, dated 2015).
# Assays:
# PN4 pancreatic tumors = experiment: In vivo limiting dilution assay of treated PN4 tumors; set-up: species or system NOD/SCID mice; settings: day 75 after injection of 30, 90, 270 cells, control 7 out of 30
# From the text: Limiting dilution assays (LDA) can be used to assess the effect of therapeutic agents on solid tumor cancer stem cells and on the tumorigenicity of a tumor comprising the cancer stem cells. Such assays can be used to determine the frequency of cancer stem cells in tumors from animals treated with the FZD8-Fc fusion protein or other agent and to compare that frequency to the frequency of cancer stem cells in tumors from control animals. Control and treated tumors from the PN4 xenograft study described above were harvested at the end of the study (day 85). The tumors were processed and dissociated into single cells. […] The human cells in the suspension were harvested, counted, and stained for cell surface markers and appropriate cell doses (30, 90, and 270 cells) in FACS buffer were mixed in a 1:1 mixture with Matrigel and injected subcutaneously in NOD/SCID mice (10 mice per cell dose per treatment group). […] At the desired time point, the percentage of mice with detectable tumors was determined in all groups injected with FZD8-Fc-treated tumor cells and compared to the percentage of mice with detectable tumors in the controls. For example, the number of mice injected with 125 control antibody-treated tumor cells that have detectable tumors is determined and compared to the number of mice injected with 125 FZD8-Fc treated tumor cells that have detectable tumors. […]
# PN4 tumors = experiment: Flow cytometry for ESA and CD44 on treated PN4 tumors; format: in vivo, NOD/SCID mice; settings: PN4 tumors harvested day 85, 5 tumors pooled; control antibody 12.7%
# Procedure: Control and treated tumors from the OMP-PN4 xenograft study described above were harvested at the end of the study (day 85). The tumors were processed and dissociated into single cells. Single cell suspensions derived from 5 tumors of each treatment group were pooled, and the pooled samples were then incubated on ice for 30 min with antibodies that bind mouse cells selectively (α-mouse CD45-biotin 1:200 dilution and rat α-mouse H2Kd-biotin 1:100 dilution, BioLegend, San Diego, Calif.), followed by addition of streptavidin-labeled magnetic beads (Invitrogen, Carlsbad, Calif.). Mouse cells were removed with the aid of a magnet. For analysis of human cell surface markers, the single tumor cell suspension was stained with anti-ESA (Biomeda, Hayward, Calif.) and anti-CD44 (BD Biosciences, San Jose, Calif.) antibodies which were directly conjugated to fluorochromes. Dead cells were excluded by using the viability dye DAPI. Flow cytometry was performed using a FACS Aria instrument (Becton Dickinson, Franklin Lakes, N.J.). Side scatter and forward scatter profiles were used to eliminate cell clumps.
# PN21 pancreatic tumors = experiment: In vivo limiting dilution assay of treated PN21 tumors; set-up: species or system NOD/SCID mice; settings: day 72, L-Calc
# From the text: As described above in Example 3, a limiting dilution assays was used to assess the effect of treatment with FZD8-Fc alone or in combination with gemcitabine on solid tumor cancer stem cells in the PN21 pancreatic tumor model.
# Control and treated tumors from the PN21 xenograft study described above were harvested at the end of the study. The tumors were processed and dissociated into single cells. […] The human cells in the suspension were harvested, counted, and stained for cell surface markers and appropriate cell doses (30, 90, and 270 cells) in FACS buffer were mixed in a 1:1 mixture with Matrigel and injected subcutaneously in NOD/SCID mice (10 mice per cell dose per treatment group). […]
# At the desired time point, the percentage of mice with detectable tumors was determined in all groups injected with treated tumor cells and compared to the percentage of mice with detectable tumors in control treated cells. For example, the number of mice injected with 125 control antibody-treated tumor cells that have detectable tumors is determined and compared to the number of mice injected with 125 FZD8-Fc treated tumor cells that have detectable tumors.
# On day 72 after injection of the cells, tumor take rates in the various groups were determined and the cancer stem cell frequency was calculated using L-Calc™ software (StemCell Technologies Inc.; www.stemcell.com).
compound,measurement,setting,value
"Nc1ccn([C@@H]2O[C@H](CO)[C@@H](O)C2(F)F)c(=O)n1 [gemcitabine, reference compound]",tumor take rate,PN4 pancreatic tumors,7 mice out of 30 mice
same,bulk tumor population expressing both ESA and CD44 at high levels (double positive population),PN4 tumors,13.9%
same,cancer stem cell frequency,PN21 pancreatic tumors,slightly increased
